Drawing on ChEMBL document CHEMBL1136875, “Regioselective preparation of 5-hydroxypropranolol and 4'-hydroxydiclofenac with a fungal peroxygenase” (Bioorg Med Chem Lett, 2009), this text covers Activity for 2 compounds.

The structures appear in SMILES notation.

Assay [1] relates to Priestia megaterium. The assay is described as follows: Activity of Bacillus megaterium CYP450 D6H10 mutant assessed as conversion of propranolol to 5-hydroxypropranolol at 5 mM in presence of 1 mM H2O2 and 4 mM ascorbic acid.
For assay [2], the target named is T1, Aromatic peroxygenase (Cyclocybe aegerita) (UniProt B9W4V6).
T1 sequence (whole entry): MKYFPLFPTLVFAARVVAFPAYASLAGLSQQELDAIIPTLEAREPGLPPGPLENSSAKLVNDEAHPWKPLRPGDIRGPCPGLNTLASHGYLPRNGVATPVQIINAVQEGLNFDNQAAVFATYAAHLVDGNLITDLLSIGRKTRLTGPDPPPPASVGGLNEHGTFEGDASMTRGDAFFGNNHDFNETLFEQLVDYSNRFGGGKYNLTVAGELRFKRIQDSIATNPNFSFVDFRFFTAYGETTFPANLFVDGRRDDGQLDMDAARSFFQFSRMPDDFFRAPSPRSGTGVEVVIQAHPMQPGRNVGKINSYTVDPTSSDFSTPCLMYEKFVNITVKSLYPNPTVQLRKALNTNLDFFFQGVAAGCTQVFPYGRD
The assay is described as follows: Activity of Agrocybe aegerita peroxygenase assessed as conversion of propranolol to 5-hydroxypropranolol at 5 mM in presence of 5 mM H2O2 and 4 mM ascorbic acid.

Assay [3] has as its target T1, Aromatic peroxygenase (Cyclocybe aegerita). Kind of assay: Activity of Agrocybe aegerita peroxygenase assessed as conversion of diclofenac to 4'-hydroxydiclofenac at 5 mM in presence of 5 mM H2O2 and 4 mM ascorbic acid.
Assay [4] has as its system Priestia megaterium. The assay is described as follows: Activity of Bacillus megaterium CYP450 D6H10 mutant assessed as conversion of diclofenac to 4'-hydroxydiclofenac at 5 mM in presence of 1 mM H2O2 and 4 mM ascorbic acid.

With `CC(C)NCC(O)COc1cccc2ccccc12` (centres undefined), the values for the Activity (in the assay with Priestia megaterium [1]; in assay [2]) were 0.5% and 13.6%, respectively.
In the case of `O=C(O)Cc1ccccc1Nc1c(Cl)cccc1Cl`, the Activity (in assay [3]; with Priestia megaterium [4]) was 30% throughout.
